Non-standard residues stand in square brackets, D forms with d. Residues, ends and D or L forms follow the SMILES beside them. *: point of attachment. Desaminotyrosyl = O=C(CCc1ccc(O)cc1)*; NMeY = CN[C@@H](Cc1ccc(O)cc1)C(=O)O; hArg = N=C(N)NCCCC[C@H](N)C(=O)O; Agmatine = N=C(N)NCCCCN*; Nle = CCCC[C@H](N)C(=O)O; Orn = NCCC[C@H](N)C(=O)O; Abu = CC[C@H](N)C(=O)O; GABA = NCCCC(=O)O
Assays:
[1] = molecular target: T1, GHRH receptor (human pituitary membrane homogenates) (Homo sapiens, UniProt Q02643); test: GHRH receptor binding, ligand competition with 125I-labeled [His1,Nle27]hGHRH(1-32)NH2 (Table 6); conditions: for Relative affinitiy (Binding potency) vs GHRH: GHRH(1-29) = 1
T1 sequence (Q02643 23-423): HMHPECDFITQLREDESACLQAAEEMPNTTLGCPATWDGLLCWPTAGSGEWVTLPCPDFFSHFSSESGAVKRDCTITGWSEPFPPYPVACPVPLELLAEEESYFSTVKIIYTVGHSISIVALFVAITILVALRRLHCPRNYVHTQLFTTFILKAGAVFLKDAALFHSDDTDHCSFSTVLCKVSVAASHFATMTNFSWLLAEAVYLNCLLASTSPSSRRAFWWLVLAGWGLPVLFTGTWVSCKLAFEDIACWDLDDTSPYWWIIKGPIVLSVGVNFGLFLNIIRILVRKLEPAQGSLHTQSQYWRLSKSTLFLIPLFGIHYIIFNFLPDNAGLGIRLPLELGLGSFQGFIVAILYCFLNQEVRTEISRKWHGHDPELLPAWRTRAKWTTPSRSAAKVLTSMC

[2] = molecular target: T1, GHRH receptor (human pituitary membrane homogenates); test: GHRH receptor binding, ligand competition with 125I-labeled JV-1-42 (Table 5); conditions: for Relative affinitiy (Binding potency) vs GHRH: GHRH(1-29) = 1; for Relative affinitiy (Binding potency) vs JI-38: JI-38 = 1
Excerpt: Normal human pituitaries were purchased from the National Hormone and Peptide Program (A. F. Parlow, Los Angeles, County Harbor-UCLA Medical Center, Torrance, Calif.).

[3] = tested on: GH level; test: In vivo endocrine activity (GH release), subcutaneous administration; conditions: rat, s.c.
Experimental: Subcutaneous Administration. Adult male rats were used and anesthetized with pentobarbital (6 mg/100 g, b.w.), by i.p. injection. […] Blood samples were taken from the jugular vein 5, 15 and/or 30 minutes after the injection. The blood samples were centrifuged, plasma was removed and the GH level was measured by ELISA. The results are summarized in terms of potency in Table 9.

[4] = molecular target: T1, GHRH receptor (human pituitary membrane homogenates); test: GHRH receptor binding, ligand competition with 125I-labeled JV-1-42 (Table 7); design: Normal human pituitaries were purchased from the National Hormone and Peptide Program; tissue National Hormone and Peptide Program (A. F. Parlow, Harbor-UCLA Medical Center, Torrance, Calif.); host or cells: normal human pituitary, membrane fraction / homogenate; conditions: JI-38 = 1
[5] = tested on: rat pituitary cells; test: GH release in superfused rat pituitary cell system; assay type: cell-based; conditions: 1 nM; for GH Response (ng/ml) Average / GH Response (ng/ml) 1 / GH Response (ng/ml) 2 / GH Response (ng/ml) 3: 3-min pulse; for GH Response (ng/ml) Average: average of runs; for GH Response (ng/ml) 1: run 1; for GH Response (ng/ml) 2: run 2; for GH Response (ng/ml) 3: run 3
Experimental: Growth hormone releasing activity. Growth hormone releasing was assayed by using a superfused rat pituitary cell system as described in S. Vigh and A. V. Schally, Peptides 5, Suppl: 241-347, 1984. The new synthetic peptide analog of hGHRH P20356 and JI-38 (as control) were administered for 3 minutes (1 mL perfusate) at 1 nM concentration as shown below. Fractions of 1 ml are collected and the GH content in each was determined by ELISA.
Pituitary cells from 2 male rats were used for each channel of the superfusion system. The cells were exposed to 3-min pulses of the new GHRH agonists or to JI-38 as standard every 30 min. Outflowing samples of each channel (1 ml) were collected every 3 min, and GH levels were determined by ELISA.

[6] = fraction 1 (P-20356) / 21 (JI-38)
[7] = fraction 2 (P-20356) / 22 (JI-38)
[8] = fraction 3 (P-20356) / 23 (JI-38)
[9] = fraction 4 (P-20356) / 24 (JI-38)
[10] = fraction 5 (P-20356) / 25 (JI-38)

CC[C@H](C)[C@H](NC(=O)[C@H](C)NC(=O)[C@H](CC(=O)O)NC(=O)[C@H](C)NC(=O)[C@@H](N)Cc1ccc(O)cc1)C(=O)N[C@@H](Cc1ccccc1)C(=O)N[C@H](C(=O)N[C@@H](CC(N)=O)C(=O)N[C@@H](CO)C(=O)N[C@@H](Cc1ccc(O)cc1)C(=O)N[C@@H](CCCNC(=N)N)C(=O)N[C@@H](CCCCN)C(=O)N[C@H](C(=O)N[C@@H](CC(C)C)C(=O)NCC(=O)N[C@@H](CCC(N)=O)C(=O)N[C@@H](CC(C)C)C(=O)N[C@@H](CO)C(=O)N[C@@H](C)C(=O)N[C@@H](CCCNC(=N)N)C(=O)N[C@@H](CCCCN)C(=O)N[C@@H](CC(C)C)C(=O)N[C@@H](CC(C)C)C(=O)N[C@@H](CCC(N)=O)C(=O)N[C@@H](CC(=O)O)C(=O)N[C@H](C(=O)N[C@@H](CCSC)C(=O)N[C@@H](CO)C(=O)N[C@@H](CCCNC(=N)N)C(N)=O)[C@@H](C)CC)C(C)C)[C@@H](C)O [GHRH(1-29), hGHRH(1-29)NH2, reference compound]
Relative affinitiy (Binding potency) vs GHRH [1]: 1
Relative affinitiy (Binding potency) vs GHRH [2]: 1

CCCC[C@H](NC(=O)[C@@H](NC(=O)[C@H](CC(=O)O)NC(=O)[C@H](CCC(N)=O)NC(=O)[C@H](CC(C)C)NC(=O)[C@H](CC(C)C)NC(=O)[C@H](CCCN)NC(=O)[C@H](CCCNC(=N)N)NC(=O)[C@H](C)NC(=O)[C@H](CO)NC(=O)[C@H](CC(C)C)NC(=O)[C@H](CCC(N)=O)NC(=O)[C@H](CC)NC(=O)[C@H](CC(C)C)NC(=O)[C@@H](NC(=O)[C@H](CCCN)NC(=O)[C@H](CCCNC(=N)N)NC(=O)[C@H](Cc1ccc(O)cc1)NC(=O)[C@H](CO)NC(=O)[C@H](CCC(N)=O)NC(=O)[C@@H](NC(=O)[C@H](Cc1ccccc1)NC(=O)[C@@H](NC(=O)[C@H](C)NC(=O)[C@H](CC(=O)O)NC(=O)[C@@H](C)NC(=O)CCc1ccc(O)cc1)[C@@H](C)CC)[C@@H](C)O)C(C)C)[C@@H](C)CC)C(=O)N[C@@H](CC(=O)O)C(=O)NCCCCNC(=N)N [Peptide P-20350, [Dat^1, D-Ala^2, Gln^8, Orn^12, Abu^15, Orn^21, Nle^27, Asp^28, Agm^29]hGHRH(1-29)] (Desaminotyrosyl-[dA]DAIFTQSYR[Orn]VL[Abu]QLSAR[Orn]LLQDI[Nle]D-Agmatine)
Stimulation of growth hormone levels after s.c. administration (comparison in words) [3]: stimulated greater growth hormone levels than hGHRH or JI-38
Relative affinitiy (Binding potency) vs GHRH [2]: 101.5
Relative affinitiy (Binding potency) vs JI-38 [2]: 42.7
Relative affinitiy (Binding potency) vs JI-38 [4]: 8.37

CCCC[C@H](NC(=O)[C@@H](NC(=O)[C@H](CC(=O)O)NC(=O)[C@H](CCC(N)=O)NC(=O)[C@H](CC(C)C)NC(=O)[C@H](CC(C)C)NC(=O)[C@H](CCCN)NC(=O)[C@H](CCCNC(=N)N)NC(=O)[C@H](C)NC(=O)[C@H](CO)NC(=O)[C@H](CC(C)C)NC(=O)[C@H](CCC(N)=O)NC(=O)[C@H](CC)NC(=O)[C@H](CC(C)C)NC(=O)[C@@H](NC(=O)[C@H](CCCN)NC(=O)[C@H](CCCNC(=N)N)NC(=O)[C@H](Cc1ccc(O)cc1)NC(=O)[C@H](CO)NC(=O)[C@H](CCC(N)=O)NC(=O)[C@@H](NC(=O)[C@H](Cc1ccccc1)NC(=O)[C@@H](NC(=O)[C@H](C)NC(=O)[C@H](CC(=O)O)NC(=O)[C@H](C)NC(=O)[C@H](Cc1ccc(O)cc1)NC)[C@@H](C)CC)[C@@H](C)O)C(C)C)[C@@H](C)CC)C(=O)N[C@@H](CC(=O)O)C(=O)NCCCCNC(=N)N [Peptide P-20356, [N—Me-Tyr^1, Gln^8, Orn^12, Abu^15, Orn^21, Nle^27, Asp^28, Agm^29]hGHRH(1-29)] (H-[NMeY]ADAIFTQSYR[Orn]VL[Abu]QLSAR[Orn]LLQDI[Nle]D-Agmatine)
Stimulation of growth hormone levels after s.c. administration (comparison in words) [3]: stimulated greater growth hormone levels than hGHRH or JI-38
GH Response (ng/ml) Average [5, 6]: 52.45 ng/mL
GH Response (ng/ml) Average [5, 7]: 337.48 ng/mL
GH Response (ng/ml) Average [5, 8]: 556.46 ng/mL
GH Response (ng/ml) Average [5, 9]: 334.99 ng/mL
GH Response (ng/ml) Average [5, 10]: 197.91 ng/mL
GH Response (ng/ml) 1 [5, 6]: 49.98 ng/mL
GH Response (ng/ml) 1 [5, 7]: 310.58 ng/mL
GH Response (ng/ml) 1 [5, 8]: 491.01 ng/mL
GH Response (ng/ml) 1 [5, 9]: 399.95 ng/mL
GH Response (ng/ml) 1 [5, 10]: 200.64 ng/mL
GH Response (ng/ml) 2 [5, 6]: 54.99 ng/mL
GH Response (ng/ml) 2 [5, 7]: 325.76 ng/mL
GH Response (ng/ml) 2 [5, 8]: 602.1 ng/mL
GH Response (ng/ml) 2 [5, 9]: 270.02 ng/mL
GH Response (ng/ml) 2 [5, 10]: 195.18 ng/mL
GH Response (ng/ml) 3 ([5]; fraction 1): 52.37 ng/mL
GH Response (ng/ml) 3 ([5]; fraction 2): 376.11 ng/mL
GH Response (ng/ml) 3 ([5]; fraction 3): 576.26 ng/mL
GH-releasing potency in vitro relative to JI-38 ([5]; superfused rat pituitary cells): about 3 times
Relative affinitiy (Binding potency) vs GHRH [2]: 406.0
Relative affinitiy (Binding potency) vs JI-38 [2]: 171
Relative affinitiy (Binding potency) vs JI-38 [4]: 16.11

CCCC[C@H](NC(=O)[C@@H](NC(=O)[C@H](CC(=O)O)NC(=O)[C@H](CCC(N)=O)NC(=O)[C@H](CC(C)C)NC(=O)[C@H](CC(C)C)NC(=O)[C@H](CCCN)NC(=O)[C@H](CCCNC(=N)N)NC(=O)[C@H](C)NC(=O)[C@H](CO)NC(=O)[C@H](CC(C)C)NC(=O)[C@H](CCC(N)=O)NC(=O)[C@H](CC)NC(=O)[C@H](CC(C)C)NC(=O)[C@@H](NC(=O)[C@H](CCCN)NC(=O)[C@H](CCCNC(=N)N)NC(=O)[C@H](Cc1ccc(O)cc1)NC(=O)[C@H](CO)NC(=O)[C@H](C)NC(=O)[C@@H](NC(=O)[C@H](Cc1ccccc1)NC(=O)[C@@H](NC(=O)[C@H](C)NC(=O)[C@H](CC(=O)O)NC(=O)[C@@H](C)NC(=O)CCc1ccc(O)cc1)[C@@H](C)CC)[C@@H](C)O)C(C)C)[C@@H](C)CC)C(=O)N[C@@H](CC(=O)O)C(=O)N[C@@H](CCCNC(=N)N)C(=O)N[C@@H](CCCCNC(=N)N)C(N)=O [Peptide P-23256, [Dat^1, D-Ala^2, Ala^8, Orn^12, Abu^15, Orn^21, Nle^27, Asp^28, Har^30]hGHRH(1-30)NH2] (Desaminotyrosyl-[dA]DAIFTASYR[Orn]VL[Abu]QLSAR[Orn]LLQDI[Nle]DR[hArg]-NH2)
Relative affinitiy (Binding potency) vs GHRH [1]: 148.0
Relative affinitiy (Binding potency) vs JI-38 ([1]; JI-38 = 1): 48.7

CCCC[C@H](NC(=O)[C@@H](NC(=O)[C@H](CC(=O)O)NC(=O)[C@H](CCC(N)=O)NC(=O)[C@H](CC(C)C)NC(=O)[C@H](CC(C)C)NC(=O)[C@H](CCCN)NC(=O)[C@H](CCCNC(=N)N)NC(=O)[C@H](C)NC(=O)[C@H](CO)NC(=O)[C@H](CC(C)C)NC(=O)[C@H](CCC(N)=O)NC(=O)[C@H](CC)NC(=O)[C@H](CC(C)C)NC(=O)[C@@H](NC(=O)[C@H](CCCN)NC(=O)[C@H](CCCNC(=N)N)NC(=O)[C@H](Cc1ccc(O)cc1)NC(=O)[C@H](CO)NC(=O)[C@H](CC(N)=O)NC(=O)[C@@H](NC(=O)[C@H](Cc1ccccc1)NC(=O)[C@@H](NC(=O)[C@H](C)NC(=O)[C@H](CC(=O)O)NC(=O)[C@@H](C)NC(=O)CCc1ccc(O)cc1)[C@@H](C)CC)[C@@H](C)O)C(C)C)[C@@H](C)CC)C(=O)N[C@@H](CO)C(=O)N[C@@H](CCCNC(=N)N)C(=O)N[C@@H](CCC(N)=O)C(=O)NCCCC(N)=O [Peptide P-29702, [Dat^1, D-Ala^2, Orn^12, Abu^15, Orn^21, Nle^27, Gln-Gab^30]hGHRH(1-30)NH2] (Desaminotyrosyl-[dA]DAIFTNSYR[Orn]VL[Abu]QLSAR[Orn]LLQDI[Nle]SRQ[GABA]-NH2)
Relative affinitiy (Binding potency) vs GHRH [2]: 81.2
Relative affinitiy (Binding potency) vs JI-38 [2]: 34.2
Relative affinitiy (Binding potency) vs JI-38 [4]: 5.06

Source: US9393271B2, “GHRH agonists for islet cell transplantation and function and the treatment of diabetes” (UNIVERSITY OF MIAMI, priority 2012, dated 2016)
